# Test results: ChEMBL document CHEMBL3526034 (Drug Metab Dispos, 2013)
# pIC50: −log10 of the molar value.
# Tests used:
# MDR1 (P-gp, ABCB1) = MDR1 (P-gp, ABCB1) (Homo sapiens, UniProt P08183); test: Activity at human MDR1 expressed in MDCK2 cells assessed as apical to basolateral mass balance at 3 uM by liquid scintillation counting analysis in presence of 3 uM P-gp and BCRP inhibitor GF120918; assay type: ADME, cell-based, MDCK-II; conditions: with GF120918 (P-gp and BCRP inhibitor), read-out: Activity
# Sequence of MDR1 (P-gp, ABCB1) (P08183 whole entry): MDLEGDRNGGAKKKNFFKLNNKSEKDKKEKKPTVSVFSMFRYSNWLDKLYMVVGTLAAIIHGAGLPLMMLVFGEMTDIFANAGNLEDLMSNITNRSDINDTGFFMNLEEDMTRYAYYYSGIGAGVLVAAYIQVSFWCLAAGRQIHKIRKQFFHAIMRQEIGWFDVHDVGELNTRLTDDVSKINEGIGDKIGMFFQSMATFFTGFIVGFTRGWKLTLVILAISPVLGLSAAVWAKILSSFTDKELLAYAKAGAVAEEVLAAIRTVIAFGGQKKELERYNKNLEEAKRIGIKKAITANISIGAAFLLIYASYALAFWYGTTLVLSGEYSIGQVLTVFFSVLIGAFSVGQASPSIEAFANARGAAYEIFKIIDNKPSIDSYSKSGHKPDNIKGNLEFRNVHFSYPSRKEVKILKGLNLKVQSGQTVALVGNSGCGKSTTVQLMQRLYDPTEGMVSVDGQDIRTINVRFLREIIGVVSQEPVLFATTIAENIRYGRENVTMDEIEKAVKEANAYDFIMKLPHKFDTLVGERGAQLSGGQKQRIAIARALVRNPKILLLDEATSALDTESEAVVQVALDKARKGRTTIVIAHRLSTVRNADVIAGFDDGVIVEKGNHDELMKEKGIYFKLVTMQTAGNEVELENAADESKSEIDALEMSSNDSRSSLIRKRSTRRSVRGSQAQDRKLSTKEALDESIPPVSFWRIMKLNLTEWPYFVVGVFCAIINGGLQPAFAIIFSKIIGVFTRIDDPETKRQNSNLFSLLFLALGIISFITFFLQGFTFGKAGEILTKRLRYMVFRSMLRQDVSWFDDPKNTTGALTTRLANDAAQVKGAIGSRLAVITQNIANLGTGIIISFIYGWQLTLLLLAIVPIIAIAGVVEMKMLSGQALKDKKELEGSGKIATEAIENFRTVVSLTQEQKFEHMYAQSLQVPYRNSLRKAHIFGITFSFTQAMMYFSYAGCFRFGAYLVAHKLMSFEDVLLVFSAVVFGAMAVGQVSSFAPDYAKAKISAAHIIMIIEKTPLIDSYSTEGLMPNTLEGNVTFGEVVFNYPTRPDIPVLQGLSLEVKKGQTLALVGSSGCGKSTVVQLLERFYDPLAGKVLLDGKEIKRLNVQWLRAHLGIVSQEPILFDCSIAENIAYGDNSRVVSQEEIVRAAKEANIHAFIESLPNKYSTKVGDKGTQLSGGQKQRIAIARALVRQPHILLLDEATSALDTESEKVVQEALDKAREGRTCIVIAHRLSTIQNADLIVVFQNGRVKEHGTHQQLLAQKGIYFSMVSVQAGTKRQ
# UGT1A1 = UGT1A1 (Homo sapiens, UniProt P22309); test: Inhibition of human recombinant UGT1A1 expressed in supersomes assessed as scopoletin glucuronidation at 100 uM by fluorescence analysis; assay type: ADME; conditions: probe scopoletin
# Liver microsome [1] = test: (§1) Drug metabolism in UDPGA-fortified human liver microsomes assessed as DTG glucuronide metabolite ((2S,3S,4S,5R,6S)-6-((4R,12aS)-9-(2,4-difluorobenzylcarbamoyl)-4-methyl-6,8-dioxo-3,4,6,8,12,12a-hexahydro-2H-[1,3]oxazino[3,2-d]pyrido[1,2-a]pyrazin-7-yloxy)-3,4,5-trihydroxytetrahydro-2H-pyran-2-carboxylic acid) formation at 10 uM after 120 mins by radio-HPLC analysis in presence of UGT1A1 inhibitor atazanavir; assay type: ADME
# Liver microsome [2] = test: as §1, with “16” for “10”, “treated for 4 hrs” for “after 120 mins”, “analysis” for “analysis in presence of UGT1A1 inhibitor atazanavir”; assay type: ADME
# Cytochrome P450 2D6 = Cytochrome P450 2D6 (Homo sapiens, UniProt P10635); test: Drug metabolism in supersomes expressing human recombinant CYP2D6 assessed as NADPH-fortified enzyme-mediated metabolite formation at 5 uM after 120 mins by radio HPLC analysis; assay type: ADME; conditions: 2 h
# Sequence of Cytochrome P450 2D6 (P10635 whole entry): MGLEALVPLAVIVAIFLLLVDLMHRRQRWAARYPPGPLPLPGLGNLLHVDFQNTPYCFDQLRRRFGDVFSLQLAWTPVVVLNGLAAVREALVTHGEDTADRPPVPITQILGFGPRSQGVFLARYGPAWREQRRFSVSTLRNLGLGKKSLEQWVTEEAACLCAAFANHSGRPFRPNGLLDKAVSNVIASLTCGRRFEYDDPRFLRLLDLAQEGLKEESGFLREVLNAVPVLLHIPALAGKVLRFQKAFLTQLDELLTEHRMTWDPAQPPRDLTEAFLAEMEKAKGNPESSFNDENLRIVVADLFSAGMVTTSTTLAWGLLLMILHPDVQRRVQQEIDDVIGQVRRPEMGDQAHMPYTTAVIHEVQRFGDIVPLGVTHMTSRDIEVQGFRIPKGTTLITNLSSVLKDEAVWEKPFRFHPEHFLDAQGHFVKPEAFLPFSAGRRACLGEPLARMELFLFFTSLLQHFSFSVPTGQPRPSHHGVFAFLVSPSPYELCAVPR
# [3] = In vitro passive membrane permeability across dog MDCK2 cells at 3 uM using fasted state-simulated intestinal fluid buffer at pH 5.5 on donor side and 1% human serum albumin at pH 7.4 on receiver side by liquid scintillation counting analysis; assay type: ADME, cell-based, Canis lupus familiaris, MDCK-II; conditions: MDCK, read-out: permeability
# [4] = target: T1, Broad substrate specificity ATP-binding cassette transporter ABCG2 (Homo sapiens, UniProt Q9UNQ0); test: Inhibition of BCRP (unknown origin) expressed in MDCK2 cells assessed as basolateral to apical transport of [14C]cimetidine at 30 uM after 90 mins by liquid scintillation counting analysis; assay type: ADME, cell-based; conditions: mdck-ii, 1.5 h
# T1 sequence (Q9UNQ0 whole entry): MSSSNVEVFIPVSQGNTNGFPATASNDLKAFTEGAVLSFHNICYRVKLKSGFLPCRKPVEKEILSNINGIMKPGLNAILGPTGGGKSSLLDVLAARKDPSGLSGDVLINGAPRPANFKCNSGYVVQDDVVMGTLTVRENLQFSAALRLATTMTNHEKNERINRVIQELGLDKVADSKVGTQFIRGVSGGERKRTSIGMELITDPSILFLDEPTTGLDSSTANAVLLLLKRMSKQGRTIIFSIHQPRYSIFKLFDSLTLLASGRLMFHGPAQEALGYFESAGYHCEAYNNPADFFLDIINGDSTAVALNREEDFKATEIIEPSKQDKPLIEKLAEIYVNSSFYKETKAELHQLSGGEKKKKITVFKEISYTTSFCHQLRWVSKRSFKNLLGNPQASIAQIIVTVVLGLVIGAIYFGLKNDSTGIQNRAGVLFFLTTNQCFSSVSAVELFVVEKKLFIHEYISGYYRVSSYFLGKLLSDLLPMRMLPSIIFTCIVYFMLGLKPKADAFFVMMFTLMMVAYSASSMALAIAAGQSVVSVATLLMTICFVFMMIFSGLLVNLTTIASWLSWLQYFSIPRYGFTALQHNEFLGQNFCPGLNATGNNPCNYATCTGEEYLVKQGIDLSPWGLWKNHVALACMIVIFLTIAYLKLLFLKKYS
# [5] = target: Solute carrier family 22 member 1 (Homo sapiens, UniProt O15245); test: Inhibition of human OCT1 expressed in HEK293 cells using [14C]metformin as substrate at 10 uM after 10 mins by liquid scintillation counting analysis; assay type: ADME, cell-based; conditions: hek293, 10 min
# Sequence of Solute carrier family 22 member 1 (O15245 whole entry): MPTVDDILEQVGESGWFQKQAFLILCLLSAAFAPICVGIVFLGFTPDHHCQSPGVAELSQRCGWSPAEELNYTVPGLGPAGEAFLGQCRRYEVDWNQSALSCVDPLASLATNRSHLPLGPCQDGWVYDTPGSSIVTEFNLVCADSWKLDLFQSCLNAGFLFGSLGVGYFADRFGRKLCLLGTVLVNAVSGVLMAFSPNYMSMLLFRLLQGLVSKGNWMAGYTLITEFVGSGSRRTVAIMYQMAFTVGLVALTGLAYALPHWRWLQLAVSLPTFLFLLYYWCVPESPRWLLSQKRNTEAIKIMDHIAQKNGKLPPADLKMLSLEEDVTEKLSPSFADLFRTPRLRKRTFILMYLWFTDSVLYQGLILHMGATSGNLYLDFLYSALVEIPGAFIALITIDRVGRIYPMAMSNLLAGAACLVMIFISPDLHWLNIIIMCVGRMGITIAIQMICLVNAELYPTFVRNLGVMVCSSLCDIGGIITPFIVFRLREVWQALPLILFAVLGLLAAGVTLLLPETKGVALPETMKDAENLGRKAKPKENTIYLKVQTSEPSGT
# [6] = target: T2, UDP-glucuronosyltransferase 1A1 (Homo sapiens, UniProt P22309); test: Drug metabolism in UDPGA-fortified human liver microsomes assessed as UGT1A1-mediated DTG glucuronide M2 ((2S,3S,4S,5R,6S)-6-((4R,12aS)-9-(2,4-difluorobenzylcarbamoyl)-4-methyl-6,8-dioxo-3,4,6,8,12,12a-hexahydro-2H-[1,3]oxazino[3,2-d]pyrido[1,2-a]pyrazin-7-yloxy)-3,4,5-trihydroxytetrahydro-2H-pyran-2-carboxylic acid) formation after 120 mins measured per mg of protein by radio-HPLC analysis; assay type: ADME
# T2 sequence (P22309 whole entry): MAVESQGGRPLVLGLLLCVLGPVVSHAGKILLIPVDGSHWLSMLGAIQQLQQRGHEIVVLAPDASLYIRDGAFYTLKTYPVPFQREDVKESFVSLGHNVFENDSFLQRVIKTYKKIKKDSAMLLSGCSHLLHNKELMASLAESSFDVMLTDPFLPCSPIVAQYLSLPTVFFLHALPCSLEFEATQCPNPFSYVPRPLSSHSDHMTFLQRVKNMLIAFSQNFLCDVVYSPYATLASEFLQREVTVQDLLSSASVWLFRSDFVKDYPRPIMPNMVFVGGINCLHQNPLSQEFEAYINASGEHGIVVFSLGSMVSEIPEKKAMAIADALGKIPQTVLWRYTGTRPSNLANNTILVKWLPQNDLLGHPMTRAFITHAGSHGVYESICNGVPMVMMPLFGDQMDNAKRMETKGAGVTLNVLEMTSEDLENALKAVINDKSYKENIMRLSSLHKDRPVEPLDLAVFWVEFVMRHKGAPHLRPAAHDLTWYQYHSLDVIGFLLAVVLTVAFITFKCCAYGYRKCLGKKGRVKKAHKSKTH
# Cytochrome P450 3A4 = Cytochrome P450 3A4 (Homo sapiens, UniProt P08684); test: Drug metabolism in supersomes expressing human recombinant CYP3A4 assessed as for NADPH-fortified enzyme-mediated metabolite M1 ((4R,12aS)-7-hydroxy-4-methyl-6,8-dioxo-3,4,6,8,12,12a-hexahydro-2H-[1,3]oxazino[3,2-d]pyrido[1,2-a]pyrazine-9-carboxamide) formation at 5 uM after 120 mins by radio-HPLC analysis; assay type: ADME
# Sequence of Cytochrome P450 3A4 (P08684 whole entry): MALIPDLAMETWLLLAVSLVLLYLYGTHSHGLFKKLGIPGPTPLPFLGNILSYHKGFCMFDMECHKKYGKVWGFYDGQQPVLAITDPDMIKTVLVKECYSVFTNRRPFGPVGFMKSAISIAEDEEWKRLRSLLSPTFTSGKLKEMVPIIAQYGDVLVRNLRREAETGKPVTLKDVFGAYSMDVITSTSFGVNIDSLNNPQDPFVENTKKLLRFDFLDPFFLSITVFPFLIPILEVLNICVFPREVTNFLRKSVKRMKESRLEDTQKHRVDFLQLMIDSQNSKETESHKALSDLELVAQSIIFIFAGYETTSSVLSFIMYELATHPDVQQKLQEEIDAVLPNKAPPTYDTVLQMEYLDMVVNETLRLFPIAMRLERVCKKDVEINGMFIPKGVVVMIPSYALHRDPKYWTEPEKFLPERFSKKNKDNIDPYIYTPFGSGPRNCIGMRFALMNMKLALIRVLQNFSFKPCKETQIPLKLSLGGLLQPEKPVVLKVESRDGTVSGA
# Cytochrome P450 1A2 = target: T3, Cytochrome P450 1A2 (Homo sapiens, UniProt P05177); test: Metabolism-dependent inhibition of CYP1A2 in human liver microsomes using phenacetin as substrate preincubated for 20 mins with NADPH prior to initiation of reaction with probe substrate by HPLC analysis; assay type: ADME
# T3 sequence (P05177 whole entry): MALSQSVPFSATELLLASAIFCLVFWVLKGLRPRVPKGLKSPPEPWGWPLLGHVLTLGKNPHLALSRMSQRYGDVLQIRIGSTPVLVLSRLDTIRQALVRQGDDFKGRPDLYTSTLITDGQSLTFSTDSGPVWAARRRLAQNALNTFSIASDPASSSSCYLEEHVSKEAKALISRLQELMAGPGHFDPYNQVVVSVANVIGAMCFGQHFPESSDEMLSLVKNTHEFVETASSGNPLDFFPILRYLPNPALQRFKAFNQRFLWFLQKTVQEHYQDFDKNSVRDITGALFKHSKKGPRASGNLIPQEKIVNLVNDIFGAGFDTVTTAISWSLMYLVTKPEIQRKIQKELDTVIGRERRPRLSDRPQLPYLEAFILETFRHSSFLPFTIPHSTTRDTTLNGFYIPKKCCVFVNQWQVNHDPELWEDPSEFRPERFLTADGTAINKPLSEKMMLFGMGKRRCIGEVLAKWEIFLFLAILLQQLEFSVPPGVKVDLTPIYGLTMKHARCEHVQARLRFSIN
# [7] = target: ATP-dependent translocase ABCB1 (Homo sapiens, UniProt P08183); test: Inhibition of MDR1 (unknown origin) expressed in MDCK2 cells assessed as basolateral to apical transport of [3H]digoxin after 90 mins by liquid scintillation counting analysis; assay type: ADME, cell-based, MDCK-II
# Sequence of ATP-dependent translocase ABCB1 (P08183 whole entry): as the sequence (P08183 whole entry) above
compound,measurement,setting,value
C[C@@H]1CCO[C@H]2Cn3cc(C(=O)NCc4ccc(F)cc4F)c(=O)c(O)c3C(=O)N12 [DOLUTEGRAVIR],recovery at 3 µM,"MDR1 (P-gp, ABCB1)",84%
same,inhibition at 100 µM,UGT1A1,33%
same,Drug metabolism,Liver microsome [1],metabolite_not_detected
same,Drug metabolism,Liver microsome [2],metabolite_detected
same,Drug metabolism,Cytochrome P450 2D6,metabolite_not_detected
same,Papp at 3 µM,[3],26.5 ×10⁻⁶ cm/s
same,inhibition (INH),[4],43%
same,inhibition (INH),[5],22%
same,Vmax,[6],409 pmol/min
same,Drug metabolism,Cytochrome P450 3A4,metabolite_detected
same,pIC50,Cytochrome P450 1A2,< 4.00
same,pIC50,[7],< 4.00
